# Laboratory results from patent US12624004B2 (Fudan University, priority 2019, dated 2026).
# Counter-ions that a name gives are not always drawn. Like-named read-outs stand apart in the source and are kept apart here.
# Legend:
# [1] = molecular target: T1, μ opioid receptor (Homo sapiens, UniProt P35372); assay: Competition binding assay on membranes of CHO cells expressing μ opioid receptor, [3H]-labeled ligand; details: for Ki: read-out: μOR Ki
# T1 construct: expressed in transfected cells; host or cells: CHO cells (membranes)
# Method in brief: (§1)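 CHO membranes (20–30 μg protein) incubated with [3H]-labeled ligand at 1–2 nM and test compounds, 30 min at 30° C; nonspecific binding with 1 μM corresponding ligand. Filtered on GF/C, washed with 50 mM Tris-HCl pH 7.4, scintillation-counted. IC50 converted to Ki by Ki=IC50/(1+[L]/Kd).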
# [2] = molecular target: T2, δ opioid receptor (Homo sapiens, UniProt P41143); assay: Competition binding assay on membranes of CHO cells expressing δ opioid receptor, [3H]-labeled ligand
# T2 construct: expressed in transfected cells; host or cells: CHO cells (membranes)
# Method in brief: as §1
# [3] = molecular target: T3, κ opioid receptor (Homo sapiens, UniProt P41145); assay: Competition binding assay on membranes of CHO cells expressing κ opioid receptor, [3H]-labeled ligand; details: for Ki: read-out: κOR Ki
# T3 construct: expressed in transfected cells; host or cells: CHO cells (membranes)
# Method in brief: as §1
# [4] = test system: Female mice; assay: In vivo hot plate method analgesia test; details: intraperitoneal; for Maximum percentage effective analgesia (% MPE): Table 5-2, hot plate 55° C.; for % MPE @ 10 mg/kg: Table 3-2, hot plate 55° C.; for % MPE (5 mg/kg): Table 2-2, hot plate 55° C.
# Experimental: Female mice weighing about 20 g were placed on a hot plate apparatus preheated to 55° C., and the latency of the hindfoot response of the mice was used as the pain threshold indicator. Animals were screened before the experiment, and those with response latency less than 5 s or more than 30 s were excluded. To prevent foot scalding, the maximum observation time was set at 60 s. The basal pain threshold was the average of two measurements, with a 5-min interval between measurements. pain thresholds were measured at 15 m, 30 m, 60 m and 120 m after intraperitoneal injection in each group of mice. The percentage effective analgesia (% MPE) was calculated according to the following formula: percentage effective analgesia (% MPE) (post-dose latency−pre-dose latency)/(60−pre-dose latency)×100%. ED50 values were calculated based on the effective percentage of analgesia using the software Graphpad prism 5.0 software.
# (§2) Female mice weighing about 20 g were placed on a hot plate apparatus preheated to 55° C., and the latency of the hindfoot response of the mice was used as the pain threshold indicator. Animals were selected before the experiment, and those with response latency less than 5 s or greater than 30 s were excluded. To prevent foot scalding, the maximum observation time was set at 60 s. The basal pain threshold was the average of two measurements, with a 5-min interval between measurements. pain thresholds were measured at 15 min, 30 min, 60 min and 120 min after intraperitoneal administration in each group of mice. The percentage of analgesic effectiveness (% MPE) was calculated according to the following equation. Percentage of effective analgesia (% MPE)_(Pre-dose incubation period−Incubation period after drug administration)/(60-Pre-dose incubation period)×100%. ED50 values were calculated based on the effective percentage of analgesia using GraphPad prism 5.0 software.
# as §2, with “were screened” for “were selected”, “measurements. Pain” for “measurements. pain”, “following formula.” for “following equation. Percentage of effective analgesia (% MPE)_(Pre-dose incubation period−Incubation period after drug administration)/(60-Pre-dose incubation period)×100%. ED50 values were calculated based on the effective percentage of analgesia using GraphPad prism 5.0 software.”
# ED50 values were calculated based on the effective percentage of analgesia using Graphpad Prism 5.0.
# Female mice weighing about 20 g were placed on a hot plate apparatus preheated to 55° C., and the latency of the hindfoot response of the mice was used as the pain threshold indicator. Animals were screened before the experiment, and those with response latency less than 5 s or more than 30 s were excluded. To prevent foot scalding, the maximum observation time was set at 60 s. The basal pain threshold was the average of two measurements, with a 5-min interval between measurements. pain thresholds were measured at 15 min, 30 min, 60 min and 120 min after intraperitoneal administration in each group of mice. The analgesic effective percentage (% MPE) was calculated according to the following formula: analgesic effective percentage (% MPE)=(latency after drug administration−latency before drug administration)/(60−latency before drug administration)×100%. ED50 values were calculated based on the effective percentage of analgesia using the software Graphpad prism 5.0.
# Female mice weighing about 20 g were placed on a hot plate apparatus preheated to 55° C. and the latency of the hindfoot response was used as an indicator of pain threshold. […]
# [5] = 0.5 h, Table 5-1, 1 μM concentration of compound, read-out: δOR Combination rate (%)
# [6] = Table 3-1, 1 μM concentration of compounds, read-out: μOR Binding rate (%)
# [7] = 0.5 h, Table 3-1, 1 μM concentration of compounds, read-out: δOR Binding rate (%)
# [8] = 0.5 h, Table 3-1, 1 μM concentration of compounds, read-out: κOR Binding rate (%)
# [9] = 0.5 h, Table 5-1, 1 μM concentration of compound, read-out: κOR Combination rate (%)
# [10] = 0.5 h, Table 2-1, 1 μM concentration of compound, read-out: δOR Binding rate (%)
compound,measurement,setting,value
"COc1cccc(C2(O)CCN(C(=O)C3(c4ccccc4)CCCCC3)CC2CN(C)C)c1.Cl (stereo not drawn) [FWBE27, (3-((Dimethylamino)methyl)-4-hydroxy-4-(3-methoxyphenyl)piperidin-1-yl)(1-phenylcyclohexyl) methanone hydrochloride]",Ki,[1]; Table 5-1,51.6 ± 2.24 nM
same,inhibition at 1 µM,[2]; [5],93.6 ± 1.08%
same,Ki,[3]; Table 5-1,30.7 ± 0.96 nM
same,Maximum percentage effective analgesia (% MPE),[4]; 10 mg/kg dose,61.21%
"COc1cccc(C2(O)CCN(C(=O)Nc3cc(C(F)(F)F)cc(C(F)(F)F)c3)CC2CN(C)C)c1.Cl (stereo not drawn) [FWBF10, N-(3,5-Bis(trifluoromethyl)phenyl)-3-((dimethylamino)methyl)-4-hydroxy-4-(3-methoxyphenyl) piperidine-1-carboxamide hydrochloride]",inhibition at 1 µM,[1]; [6],0%
same,inhibition at 1 µM,[2]; [7],0.9%
same,inhibition at 1 µM,[3]; [8],8.6 ± 4.8%
same,% MPE @ 10 mg/kg,[4]; 10 mg/kg dose,7.74%
"COc1cccc(C2(O)CCN(C(=O)Cc3cccs3)CC2CN(C)C)c1.Cl (stereo not drawn) [FWBE8, 1-(3-((Dimethylamino)methyl)-4-hydroxy-4-(3-methoxyphenyl)piperidin-1-yl)-2-(thiophen-2-yl)ethyl-1-one hydrochloride]",Ki,[1]; Table 5-1,34.8 ± 1.1 nM
same,inhibition at 1 µM,[2]; [5],18.7 ± 1.9%
same,inhibition at 1 µM,[3]; [9],32.5 ± 4.4%
same,Maximum percentage effective analgesia (% MPE),[4]; 10 mg/kg dose,93.0%
"COc1cccc(C2(O)CCN(C(=O)NC34CC5CC(CC(C5)C3)C4)CC2CN(C)C)c1 [FWBF14, N-((3S,5S,7S)-adamantan-1-yl)-3-((dimethylamino)methyl)-4-hydroxy-4-(3-methoxyphenyl) piperidine-1-carboxamide hydrochloride]",inhibition at 1 µM,[1]; [6],13.5 ± 4.8%
same,inhibition at 1 µM,[2]; [7],0%
same,inhibition at 1 µM,[3]; [8],17.9 ± 4.8%
same,% MPE @ 10 mg/kg,[4]; 10 mg/kg dose,24.15%
"COc1cccc(C2(O)CCN(C(=O)NC34CC5CC(CC(O)(C5)C3)C4)CC2CN(C)C)c1.Cl [FWBF16, 3-((dimethylamino)methyl)-4-hydroxy-N-((1R,3S,5R,7S)-3-hydroxyadamantan-1-yl)-4-(3-methoxyphenyl)piperidine-1-carboxamide hydrochloride]",inhibition at 1 µM,[1]; [6],0%
same,inhibition at 1 µM,[2]; [7],1.9%
same,inhibition at 1 µM,[3]; [8],0%
same,% MPE @ 10 mg/kg,[4]; 10 mg/kg dose,16.07%
"COc1cccc(C2(O)CCN(C(=O)Nc3cccc(Cl)c3)CC2CN(C)C)c1.Cl (stereo not drawn) [FWBF2, N-(3-Chlorophenyl)-3-((dimethylamino)methyl)-4-hydroxy-4-(3-methoxyphenyl)piperidine-1-carboxamide hydrochloride]",Ki,[1]; Table 3-1,14.1 ± 2.7 nM
same,Ki,"[2]; Table 3-1, read-out: δOR Ki",537 ± 69.3 nM
same,Ki,[3]; Table 3-1,719 ± 197 nM
same,% MPE @ 10 mg/kg,[4]; 10 mg/kg dose,21.27%
"COc1cccc(C2(O)CCN(C(=O)Nc3cccs3)CC2CN(C)C)c1 (stereo not drawn) [FWBF19, 3-((Dimethylamino)methyl)-4-hydroxy-4-(3-methoxyphenyl)-N-(thiophen-2-yl)piperidine-1-carboxamide hydrochloride]",inhibition at 1 µM,[1]; [6],0%
same,inhibition at 1 µM,[2]; [7],38.2 ± 9.4%
same,inhibition at 1 µM,[3]; [8],27.5 ± 6.4%
same,% MPE @ 10 mg/kg,[4]; 10 mg/kg dose,20.07%
"COc1cccc(C2(O)CCN(S(=O)(=O)Cc3ccc(C)cc3)CC2CN(C)C)c1.Cl (stereo not drawn) [FWBH8, 3-((Dimethylamino)methyl)-4-(3-methoxyphenyl)-1-((4-methylbenzyl)sulfonyl)piperidin-4-ol hydrochloride]",Ki,[1]; Table 2-1,247 ± 49.4 nM
same,inhibition at 1 µM,[2]; [10],11.9 ± 1.31%
same,inhibition at 1 µM,"[3]; 0.5 h, Table 2-1, 1 μM concentration of compound, read-out: κOR Binding rate (%)",29 ± 0.32%
same,% MPE (5 mg/kg),[4]; 5 mg/kg dose,17.36%
"COc1cccc(C2(O)CCN(S(=O)(=O)C[C@@]34CC[C@@H](CC3O)C4(C)C)CC2CN(C)C)c1 (stereo partly drawn) [FWBH26, 3-((Dimethylamino)methyl)-1-((((1R,4S)-2-hydroxy-7,7-dimethylbicyclo[2.2.1]hept-1-yl)methyl)sulfonic acid acyl)-4-(3-methoxyphenyl)piperidin-4-ol hydrochlorid, hydrochloride]",Ki,[1]; Table 2-1,11.5 ± 1.6 nM
same,inhibition at 1 µM,[2]; [10],9.15 ± 1.92%
same,Ki,[3]; Table 2-1,8.2 ± 3.1 nM
same,% MPE (5 mg/kg),[4]; 5 mg/kg dose,44.91%
"COc1cccc([C@@]2(O)CCN(S(=O)(=O)Cc3ccccc3)C[C@@H]2CN(C)C)c1.Cl [(3S,4R)-1-(Benzylsulfonyl)-3-((dimethylamino)methyl)-4-(3-methoxyphenyl)piperidin-4-ol hydrochloride]",inhibition at 0.1 µM,"[1]; Table 4-1 footnote a, 0.1 μM, read-out: μOR Inhibition rate",24.5 ± 0.64%
same,inhibition at 0.1 µM,"[2]; Table 4-1 footnote a, 0.1 μM, read-out: δOR Inhibition rate",7.3 ± 4.5%
same,inhibition at 0.1 µM,"[3]; Table 4-1 footnote a, 0.1 μM, read-out: κOR Inhibition rate",20.75 ± 0.13%
same,% MPE,"[4]; Table 4-2, hot plate 55° C., 10 mg/kg dose",13.4%
"COc1cccc(C2(O)CCN(C(=O)Cc3cccc(OC(F)(F)F)c3)CC2CN(C)C)c1.Cl (stereo not drawn) [FWBE6, 1-(3-((Dimethylamino)methyl)-4-hydroxy-4-(3-methoxyphenyl)piperidin-1-yl)-2-(3-(trifluoromethoxy)phenyl)ethyl-1-one hydrochloride]",inhibition at 1 µM,"[1]; 0.5 h, Table 5-1, 1 μM concentration of compound, read-out: μOR Combination rate (%)",21.5 ± 0.1%
same,inhibition at 1 µM,[2]; [5],13.2 ± 1%
same,inhibition at 1 µM,[3]; [9],13.5 ± 0.6%
same,Maximum percentage effective analgesia (% MPE),[4]; 10 mg/kg dose,47%
"COc1cccc(C2(O)CCN(S(=O)(=O)C[C@]34CC[C@H](CC3O)C4(C)C)CC2CN(C)C)c1 (stereo partly drawn) [FWBH27, 3-((Dimethylamino)methyl)-1-((((1S,4R)-2-hydroxy-7,7-dimethylbicyclo[2.2.1]hept-1-yl)methyl)sulfonyl)-4-(3-methoxyphenyl)piperidin-4-ol hydrochloride]",Ki,[1]; Table 2-1,32.5 ± 3.3 nM
same,inhibition at 1 µM,[2]; [10],24.8 ± 0.77%
same,Ki,[3]; Table 2-1,27.7 ± 3.9 nM
same,% MPE (5 mg/kg),[4]; 5 mg/kg dose,12.21%
"COc1cccc(C2(O)CCN(C(=O)Nc3ccc(F)c(F)c3)CC2CN(C)C)c1.Cl (stereo not drawn) [FWBF8, N-(3,4-difluorophenyl)-3-((dimethylamino)methyl)-4-hydroxy-4-(3-methoxyphenyl)piperidine-1-carboxamide hydrochloride]",inhibition at 1 µM,[1]; [6],13.6 ± 13.1%
same,inhibition at 1 µM,[2]; [7],16.4 ± 10.6%
same,inhibition at 1 µM,[3]; [8],0%
same,% MPE @ 10 mg/kg,[4]; 10 mg/kg dose,21.76%
"COc1cccc(C2(O)CCN(C(=O)Nc3ccc(Cl)cc3)CC2CN(C)C)c1.Cl (stereo not drawn) [FWBF4, N-(4-Chlorophenyl)-3-((dimethylamino)methyl)-4-hydroxy-4-(3-methoxyphenyl)piperidine-1-carboxamide hydrochloride]",inhibition at 1 µM,[1]; [6],48.8 ± 3.9%
same,inhibition at 1 µM,[2]; [7],0%
same,inhibition at 1 µM,[3]; [8],22.1 ± 10.7%
same,% MPE @ 10 mg/kg,[4]; 10 mg/kg dose,68.95%
COc1cccc(C2(O)CCC(N(C)S(=O)(=O)c3cccs3)CC2CN(C)C)c1.Cl (stereo not drawn) [N-(3-((Dimethylamino)methyl)-4-hydroxy-4-(3-methoxyphenyl)cyclohexyl)-N-methylthiophene-2-sulfonamide hydrochloride],inhibition at 10 µM,"[1]; Table 1-1, 10 μM concentration of compound, mean ± SD of three measurements, read-out: μOR Binding rate (%)",62 ± 6.8%
same,inhibition at 10 µM,"[2]; 0.5 h, Table 1-1, 10 μM concentration of compound, read-out: δOR Binding rate (%)",0%
same,inhibition at 10 µM,"[3]; 0.5 h, Table 1-1, 10 μM concentration of compound, read-out: κOR Binding rate (%)",51.4 ± 7.5%
same,Maximum percentage effective analgesic (% MPE),"[4]; Table 1-2, hot plate 55° C., 5 mg/kg dose",14.3%
